Assays:
[1] = Blood levels after oral gavage; design: species or system adult rats; details: rat, in vivo
Excerpt: In the treatment of certain localized conditions, the degree of hydrophilicity of the CMT can be of lesser importance. […].

[2] = Solubility in aqueous systems; format: physicochemical
[3] = Testing in cancer patients (side effects); format: in vivo
Toxicity in vivo = details: 2.0 µg/ml concentration
[4] = tested on: Candida albicans, ATCC 14053; experiment: SABHI agar plate growth inhibition screen; format: cell-based; details: for Growth at 25 µg/ml compared to control at 24 hrs incubation / Growth at 25µg/ml compared to control at 48 hours: Candida Albicans, 30°C, growth grade; for Activity against Candida albicans (Example 1): 25 µg/ml SABHI agar
Description: (§1) The following fungi were inoculated onto potato dextrose agar (PDA) from stock cultures and incubated aerobically at 30°C: Aspergillus [NT] 1022, Penicillium sp. (laboratory isolate), Candida albicans, ATCC 14053, and Rhizopus sp. […] Candida albicans was suspended in saline and adjusted to 0.5 MacFarland in a similar manner. These suspensions were diluted 1:100 in sterile 0.9% saline. SABHI Agar (Difco) pH 7.0 was prepared in 100ml amounts and sterilized at 121°C for 15 min. […] The plates were then incubated aerobically for 24 hour and for 48 hours at 30°C.

[5] = tested on: Aspergillus fumigatus ATCC 1022; experiment: SABHI agar plate growth inhibition screen; format: cell-based; details: for Activity against Aspergillus fumigatus (Example 1): 25 µg/ml SABHI agar; for Growth at 25 µg/ml compared to control at 24 hrs incubation / Growth at 25µg/ml compared to control at 48 hours: Aspergillus Fumigatus, 30°C, growth grade
Description: as §1

Rhizopus sp. = experiment: SABHI agar plate growth inhibition screen; format: cell-based; details: for Growth at 25 µg/ml compared to control at 24 hrs incubation / Growth at 25µg/ml compared to control at 48 hours: Rhizopus sp., 30°C, growth grade
Description: as §1

[6] = tested on: Penicillium sp. (laboratory isolate); experiment: SABHI agar plate growth inhibition screen; format: cell-based; details: for Activity against Penicillium sp. (Example 1): 25 µg/ml SABHI agar; for Growth at 25 µg/ml compared to control at 24 hrs incubation / Growth at 25µg/ml compared to control at 48 hours: Penicillium Sp., 30°C, growth grade
Description: as §1

Row | SMILES | Blood levels [1] | Solubility in aqueous systems [2] | Side effects [3] | Toxicity in vivo (Toxicity in vivo) | Growth at 25 µg/ml compared to control at 24 hrs incubation [4] | Growth at 25µg/ml compared to control at 48 hours [4] | Activity against Aspergillus fumigatus (Example 1) [5] | Growth at 25 µg/ml compared to control at 24 hrs incubation [5] | Growth at 25µg/ml compared to control at 48 hours [5] | Growth at 25 µg/ml compared to control at 24 hrs incubation (Rhizopus sp.) | Growth at 25µg/ml compared to control at 48 hours (Rhizopus sp.) | Activity against Penicillium sp. (Example 1) [6] | Growth at 25 µg/ml compared to control at 24 hrs incubation [6] | Growth at 25µg/ml compared to control at 48 hours [6] | Activity against Candida albicans (Example 1) [4] | Activity against Rhizopus sp. (Example 1) (Rhizopus sp.; 25 µg/ml SABHI agar)
1 | CN(C)C1C(=O)C(C#N)=C(O)C2(O)C(=O)C3=C(O)c4c(O)cccc4C(C)(O)C3CC12 (stereo not drawn) [CMT-2, tetracyclinonitrile] | no detectable blood levels | low solubility in aqueous systems | – | – | – | – | – | – | – | – | – | – | – | – | – | –
2 | NC(=O)C1=C(O)C[C@@H]2C[C@@H]3Cc4cccc(O)c4C(=O)C3=C(O)[C@]2(O)C1=O [CMT-3, 6-demethyl-6-deoxy-4-de(dimethylamino)tetracycline] | – | – | without evidence of side effects, except at unusually high doses | very little toxicity | – | – | – | – | – | – | – | – | – | – | – | –
3 | CC1(O)c2c(Cl)ccc(O)c2C(=O)C2=C(O)C3(O)C(=O)C(C(N)=O)=C(O)CC3CC21 (stereo not drawn) [CMT-4, 7-chloro-4-de(dimethylamino)tetracycline] | – | – | – | – | 1 (75% reduction in growth in colonies compared to control.) | 4 (Level of growth in the absence of anti-fungal agent (control).) | demonstrated activity | 0 (complete inhibition of growth.) | 1 (75% reduction in growth in colonies compared to control.) | 4 (Level of growth in the absence of anti-fungal agent (control).) | 4 (Level of growth in the absence of anti-fungal agent (control).) | demonstrated activity | 3 (25% reduction in growth of colonies compared to control.) | 0 (complete inhibition of growth.) | – | –
4 | CC1(O)c2cccc(O)c2C(=O)C2=C(O)C3C(=O)C(C(N)=O)=C(O)CC3CC21 (stereo not drawn) [CMT-7, 4-de(dimethylamino)-12α-deoxytetracycline] | – | – | – | – | 0 (complete inhibition of growth.) | 0 (complete inhibition of growth.) | – | 0 (complete inhibition of growth.) | 4 (Level of growth in the absence of anti-fungal agent (control).) | 4 (Level of growth in the absence of anti-fungal agent (control).) | 3 (25% reduction in growth of colonies compared to control.) | – | 3 (25% reduction in growth of colonies compared to control.) | 4 (Level of growth in the absence of anti-fungal agent (control).) | strong activity | –
5 | NC(=O)C1=C(O)C[C@@H]2C[C@@H]3Cc4ccc(N)c(O)c4C(=O)C3=C(O)[C@]2(O)C1=O [CMT-308] | – | – | – | – | 4 (Level of growth in the absence of anti-fungal agent (control).) | 4 (Level of growth in the absence of anti-fungal agent (control).) | demonstrated activity | 0 (complete inhibition of growth.) | 1 (75% reduction in growth in colonies compared to control.) | 4 (Level of growth in the absence of anti-fungal agent (control).) | 4 (Level of growth in the absence of anti-fungal agent (control).) | demonstrated activity | 0 (complete inhibition of growth.) | 0 (complete inhibition of growth.) | – | –
6 | O=C(NCN1CCNCC1)C1=C(O)C[C@@H]2C[C@@H]3Cc4cccc(O)c4C(=O)C3=C(O)[C@]2(O)C1=O [CMT-315] | – | – | – | – | 0 (complete inhibition of growth.) | 0 (complete inhibition of growth.) | activity against all the fungi tested | 0 (complete inhibition of growth.) | 0 (complete inhibition of growth.) | 1 (75% reduction in growth in colonies compared to control.) | 1 (75% reduction in growth in colonies compared to control.) | activity against all the fungi tested | 0 (complete inhibition of growth.) | 0 (complete inhibition of growth.) | activity against all the fungi tested | activity against all the fungi tested

From patent EP1296703B1, “NON-ANTIBACTERIAL TETRACYCLINE AS ANTI-FUNGAL AGENTS” (Liu, Yu, priority 2000, dated 2001)
